This passage reports Ki, Activity and Ratio Ki results from ChEMBL document CHEMBL4265966 (Bioorg Med Chem Lett, 2018).

In general, Ki refers to a dissociation constant, usually derived from enzyme kinetics or from competition with a known ligand.

Activity calls are given as the source filed them. The rule behind the calls is not given here.

The target in assay [1] is T1, Sodium-dependent serotonin transporter (Homo sapiens, UniProt P31645). Nature of the assay: biochemical. It is filed as cell-based, HEK293.
Target sequence in this assay (P31645 whole entry): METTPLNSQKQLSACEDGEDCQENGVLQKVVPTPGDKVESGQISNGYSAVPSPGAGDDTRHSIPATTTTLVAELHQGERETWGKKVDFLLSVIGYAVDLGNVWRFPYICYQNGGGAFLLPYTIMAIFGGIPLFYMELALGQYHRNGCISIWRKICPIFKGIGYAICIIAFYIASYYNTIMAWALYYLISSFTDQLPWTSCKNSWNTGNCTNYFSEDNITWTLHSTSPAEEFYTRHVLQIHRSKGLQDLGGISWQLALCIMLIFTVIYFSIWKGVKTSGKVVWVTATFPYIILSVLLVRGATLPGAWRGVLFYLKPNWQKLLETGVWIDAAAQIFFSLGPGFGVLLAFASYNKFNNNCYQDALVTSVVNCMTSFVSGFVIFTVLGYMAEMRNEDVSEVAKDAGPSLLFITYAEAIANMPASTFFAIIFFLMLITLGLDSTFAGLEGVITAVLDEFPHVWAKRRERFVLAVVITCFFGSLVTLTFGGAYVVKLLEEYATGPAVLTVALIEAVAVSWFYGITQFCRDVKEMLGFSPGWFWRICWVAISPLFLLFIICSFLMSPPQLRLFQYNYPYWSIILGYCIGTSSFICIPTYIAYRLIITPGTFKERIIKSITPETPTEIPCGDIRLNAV
Description: Displacement of [125I]-RTI-55 from human SERT expressed in HEK293 cell membranes after 1 hr by gamma counting method
Assay [2] has as its target T1, Sodium-dependent serotonin transporter. Nature of the assay: Binding affinity to human SERT expressed in HEK293 cells at 1 uM preincubated for 1 hr followed by UV light irradiation for 20 mins by IRDye 800 CW azide based tandem photoaffinity labeling-biorthogonal conjugation assay. The assay is classed as cell-based.
Target sequence in this assay (P31645 whole entry, looked up): as the sequence (P31645 whole entry) above
The target is the same in assay [3]. Briefly: Binding affinity to human SERT expressed in HEK293 cells at 1 uM after 1 hr by IRDye 800 CW azide based tandem photoaffinity labeling-biorthogonal conjugation assay. The assay is classed as cell-based.
Target sequence in this assay (P31645 whole entry, looked up): as the sequence (P31645 whole entry) above
The target is the same in assay [4]. Briefly: Potency index, ratio of (S)-citalopram Ki to compound Ki for displacement of [125I]-RTI-55 from human SERT expressed in HEK293 cell membranes. In general terms: In a radioligand displacement assay an active substance lowers the binding of a labelled ligand.
Target sequence in this assay (P31645 whole entry, looked up): as the sequence (P31645 whole entry) above
Assay [5] shares this target. Briefly: Binding affinity to human SERT expressed in HEK293 cells at 1 uM preincubated for 1 hr followed by UV light irradiation for 20 mins in presence of (S)-citalopram by IRDye 800 CW azide based tandem photoaffinity labeling-biorthogonal conjugation assay. It is filed as cell-based.
Target sequence in this assay (P31645 whole entry, looked up): as the sequence (P31645 whole entry) above

In assay [1], `CN(C)CCC[C@@]1(c2ccc(F)cc2)OCc2cc(CNC(=O)c3cc(CN=[N+]=[N-])cc(N=[N+]=[N-])c3)ccc21` came in with a Ki of 10.7 nM.
On the same count and under the same terms, for `C#CCOc1ccc(C(=O)c2ccc(CN(C)CCC[C@@]3(c4ccc(F)cc4)OCc4cc(C#N)ccc43)cc2)cc1` the value was 487 nM.
As to `C#CCOc1ccc(C(=O)c2ccc(C(=O)NCc3ccc4c(c3)CO[C@@]4(CCCN(C)C)c3ccc(F)cc3)cc2)cc1`, in assay [2], the outcome was Active. In addition, the result in assay [3] and in assay [5] was inactive. Moreover, in assay [1], the affinity corresponds to a Ki of 0.16 nM. In assay [4], the Ratio Ki was determined as 11.
